Data published in patent US12370255B2, “Peptide-based vaccines, methods of manufacturing, and uses thereof for inducing an immune response” (Barinthus Biotherapeutics North America, Inc., priority 2017, dated 2025).
“Also recorded” adds a separate entry of the source. *1 amine or outer side, *2 acyl side, *3 side chain or, on linkers, in order; H or OH if unused. Where a SMILES comes first, the peptide text is derived from it. Where no end group is shown, it is not given here. Side-chain parts run from the residue outwards. The star is where a group is joined. 2B = 1-(4-aminobutyl)-2-butyl-1H-imidazo[4,5-c]quinolin-4-amine, CCCCc1nc2c(N)nc3ccccc3c2n1CCCCN*; X2 = CCCCNc1nc(N)c2nc(O)n(Cc3ccc(C(=O)NCC(=O)NCCCn4nnc5c4-c4ccccc4N(*)Cc4ccccc4-5)cc3)c2n1; X1 = C1=C\c2ccccc2N(*)Cc2ccccc2/1; Suc = O=C(CCC(=O)[*:2])[*:1]

Key:
[1] = system: T cells; experiment: T cell responses in vivo induced by peptide antigen conjugates; conditions: immunogenic compositions of peptide antigen conjugates
Source text: FIG. 37 discloses SEQ ID NOS 580-585, respectively, in order of appearance.
FIG. 38 discloses SEQ ID NOS 586-602, respectively, in order of appearance.
FIG. 39 discloses SEQ ID NOS 603-605 and 605, respectively, in order of appearance.
FIG. 40 discloses SEQ ID NOS 606-610, respectively, in order of appearance.
FIG. 41 discloses SEQ ID NOS 603-605, 103 and 611, respectively, in order of appearance.
FIG. 42 discloses SEQ ID NO: 104.
FIG. 45 discloses SEQ ID NOS 619, 620, 619, 621, 180 and 622, respectively, in order of appearance.

[2] = system: CD8 T cells; experiment: antigen-specific CD8 T cell responses (% IFNg+ of total CD8 T cells) from whole blood of immunized mice; assay type: in vivo; conditions: native LP neoantigen admixed with pICLC; immunized days 0 and 14, day 28
Source text: Mice (N=5 per group) were immunized with different immunogenic compositions comprising peptide antigens (A) based on either the synthetic long peptide (LP, sometimes referred to as “SLP”) or the minimal CD8 T cell epitope (Min, sometimes referred to as ME) of the antigen Irgq derived from the MC38 tumor cell line either as the peptide antigen (A) alone admixed with the TLR-7/8a adjuvant; as the peptide antigen (A) linked to a hydrophobic molecule (H), W3, and admixed with the TLR-7/8a adjuvant; or as the peptide antigen (A) linked to a hydrophobic molecule (H) co-delivering a TLR-7/8a adjuvant, 2BXy3. Mice were immunized at days 0 and 14 and antigen-specific CD8 T cell responses (% IFNg+ of total CD8 T cells) were assessed from whole blood at days 0 and 25. Open circles indicate that the peptide antigen (A) was soluble (i.e. non-particulate), whereas closed circles indicate that the mice received a particulate immunogenic composition of the peptide antigen (A).
Mice (N=5 per group) were immunized with different immunogenic compositions comprising peptide antigens (A) based on either the synthetic long peptide (LP) or minimal CD8 T cell epitope (Min) of the antigen Cpne1 derived from the MC38 tumor cell line either as the peptide antigen (A) alone admixed with the TLR-7/8a adjuvant; as the peptide antigen (A) linked to a hydrophobic molecule (H), W3, and admixed with the TLR-7/8a adjuvant; or as the peptide antigen (A) linked to a hydrophobic molecule (H) co-delivering a TLR-7/8a adjuvant, 2BXy3. Mice were immunized at days 0 and 14 and antigen-specific CD8 T cell responses (% IFNg+ of total CD8 T cells) were assessed from whole blood at days 0 and 25. […]
Mice (N=5 per group) were immunized with immunogenic compositions comprising 4 unique peptide antigen conjugates delivering a distinct MC38 tumor derived minimal CD8 T cell epitopes (40 total epitopes) that were linked to either 2BXy5 or 2B5 hydrophobic molecules (H). Mice were immunized at days 0 and 14 and antigen-specific CD8 T cell responses (% IFNg+ of total CD8 T cells) were assessed from whole blood at day 24.

[3] = hydrodynamic behavior: water solubility, particle size by dynamic light scattering and turbidity in PBS pH 7.4; assay type: physicochemical; conditions: aqueous buffer at pH about 7.4
Source text: FIG. 4: Molecular weight and hydrodynamic behavior of peptide antigens (A) and peptide antigen conjugates delivering peptide antigens (A) comprised of either synthetic long peptides (SLP or “LP”) or minimal (“Min”) CD8 T cell epitopes derived from the MC38 tumor cell line. […] FIG. 4 discloses SEQ ID NOS 190-199, 623 and 200, respectively, in order of appearance. FIG. 18: Impact of peptide antigen conjugate net charge and hydrophobic molecule composition on hydrodynamic behavior. The hydrodynamic behavior of a range of different peptide antigen conjugates of Formula V at 0.1 mg/mL or 0.5 mg/mL in PBS at a pH of 7.4 was assessed by dynamic light scattering. […] Turbidity was determined by measuring the absorbance of the solution at 490 nm. […] (A) The impact of net charge on the hydrodynamic behavior of a range of different peptide antigen conjugates of Formula V suspended at 0.1 mg/mL or 0.5 mg/mL in PBS at a pH of 7.4 was assessed by dynamic light scattering. […] The hydrodynamic behavior of a range of different peptide antigen conjugates suspended at 0.1 mg/mL in PBS at a pH of 7.4 was assessed by dynamic light scattering. […] Particle size was assessed by dynamic light scattering with the peptide antigen conjugate suspended at 0.5 mg/mL in PBS at a pH of 7.4. […] Solubility can be determined by visual inspection, by turbidity measurements or by dynamic light scattering.

Molecule: CCCCNc1nc(N)c2nc(O)n(Cc3ccc(C(=O)NCC(=O)NCCCn4nnc5c4-c4ccccc4N(C(=O)CCC(=O)NCCCCC(NC(=O)CNC(=O)CCC(=O)N4Cc6ccccc6/C=C\c6ccccc64)C(=O)NCC(=O)NC(Cc4c[nH]c6ccccc46)C(=O)NC(Cc4c[nH]c6ccccc46)C(=O)NC(Cc4c[nH]c6ccccc46)C(=O)NC(Cc4c[nH]c6ccccc46)C(=O)NC(Cc4c[nH]c6ccccc46)C(N)=O)Cc4ccccc4-5)cc3)c2n1 (centres unmarked) [Compound 30] ({X1-Suc}-GK([Suc-X2])GWWWWW-NH2; configuration not given here)
- T cell responses in vivo (in words) [1]: highest magnitude responses

Molecule: CCCCc1nc2c(N)nc3ccccc3c2n1CCCCNC(=O)CCC(NC(=O)C(Cc1c[nH]c2ccccc12)NC(=O)C(CCC(=O)NCCCCn1c(CCCC)nc2c(N)nc3ccccc3c21)NC(=O)C(Cc1c[nH]c2ccccc12)NC(=O)C(CCC(=O)NCCCCn1c(CCCC)nc2c(N)nc3ccccc3c21)NC(=O)CCC(=O)N1Cc2ccccc2-c2c(nnn2CCCCC(=O)NC(CCCCN)C(=O)NC(CCCCN)C(=O)NC(CCCCN)C(=O)NC(CCCCN)C(=O)NC(CCCCN)C(=O)NC(CCCCN)C(=O)NC(CCCCN)C(=O)NC(CCCCN)C(=O)NC(CCCCN)C(=O)NC(CCCCN)C(N)=O)-c2ccccc21)C(N)=O (centres unmarked) [Compound 42]
- T cell responses in vivo (in words) [1]: high magnitude T cell immunity

Molecule: Adpgk: native LP neoantigen from MC38 that assembles into particles; minimal epitope Ala-Ser-Met-Thr-Asn-Met-Glu-Leu-Met (ASMTNMELM)
- CD8 T cell responses (in words) [2]: significant increase in CD8 T cell responses over background; also recorded: immunogenic

Molecule: Compound 16 (GGE(2B)GGE(2B)GGE(2B)GGE(2B)GGE(2B); also: DBCO)
- particle formation and stability (in words) [3]: formed stable nanoparticle micelles
- T cell responses in vivo (in words) [1]: high magnitude T cell responses

Molecule: Compound 20 (KGWGWGKGWGWGKGWGWGKGWGWGKGWGWG; not fully specified (residues 1, 7, 13, 19, 25))
- particle formation and stability (in words) [3]: formed stable nanoparticle micelles
- T cell responses in vivo (in words) [1]: high magnitude T cell responses

Molecule: Cpne1: native LP neoantigen derived from the MC38 tumor cell line, water soluble; minimal epitope Ser-Ser-Pro-Tyr-Ser-Leu-His-Tyr-Leu (SSPYSLHYL)
- CD8 T cell responses (in words) [2]: no CD8 T cell responses
